Reference: ChEMBL document CHEMBL4823279, “Epigenetic Manipulation to Trigger Production of Guaiane-Type Sesquiterpenes from a Marine-Derived Spiromastix sp. Fungus with Antineuroinflammatory Effects” (J Nat Prod, 2021)
Calls of active or inactive are those of the source. No cut-off for these calls is given here.

How the values were obtained:
[1] = Cytotoxicity against mouse BV-2 cells assessed as reduction in cell viability measured after 24 hrs by MTT assay; type: cell-based
BV-2 [2] = test: Anti-neuroinflammatory activity in mouse BV-2 cells assessed as inhibition of LPS-induced NO production measured after 24 hrs by Griess reagent based assay; type: functional, cell-based; conditions: BV-2, 24 h
BV-2 [3] = test: Anti-neuroinflammatory activity in mouse BV-2 cells assessed as reduction in LPS-stimulated TNF-alpha mRNA expression by qRT-PCR analysis; type: functional, cell-based; conditions: dose 1-10 µM
BV-2 [4] = test: Anti-neuroinflammatory activity in mouse BV-2 cells assessed as reduction in LPS-stimulated IL-1beta mRNA expression by qRT-PCR analysis; type: functional, cell-based; conditions: dose 1-10 µM
BV-2 [5] = test: Anti-neuroinflammatory activity against LPS stimulated mouse BV-2 cells assessed as reduction in iNOS protein expression measured after 24 hrs in presence of LPS by western blot analysis; type: functional, cell-based; conditions: dose 1-10 µM
BV-2 [6] = test: Inhibition of ERK phosphorylation in LPS stimulated mouse BV-2 cells at 1 to 10 uM preincubated with LPS for 1 hr followed by incubation with compound for 16 hrs by western blot analysis; type: cell-based; conditions: dose 1-10 µM
BV-2 [7] = test: Anti-neuroinflammatory activity in mouse BV-2 cells assessed as reduction in LPS-stimulated COX-2 mRNA expression at 1 to 10 uM by qRT-PCR analysis; type: functional, cell-based; conditions: dose 1-10 µM
BV-2 [8] = test: Anti-neuroinflammatory activity in mouse BV-2 cells assessed as reduction in LPS-stimulated iNOS mRNA expression at 1 to 10 uM by qRT-PCR analysis; type: functional, cell-based; conditions: dose 1-10 µM
[9] = molecular target: c-Jun N-terminal kinase (Mus musculus) (UniProt Q91Y86+Q9WTU6+Q61831); test: Inhibition of JNK phosphorylation in LPS stimulated mouse BV-2 cells at 1 to 10 uM preincubated with LPS for 1 hr followed by incubation with compound for 16 hrs by western blot analysis; type: cell-based; conditions: dose 1-10 µM
c-Jun N-terminal kinase (Mus musculus), sequence (Q61831 whole entry, looked up): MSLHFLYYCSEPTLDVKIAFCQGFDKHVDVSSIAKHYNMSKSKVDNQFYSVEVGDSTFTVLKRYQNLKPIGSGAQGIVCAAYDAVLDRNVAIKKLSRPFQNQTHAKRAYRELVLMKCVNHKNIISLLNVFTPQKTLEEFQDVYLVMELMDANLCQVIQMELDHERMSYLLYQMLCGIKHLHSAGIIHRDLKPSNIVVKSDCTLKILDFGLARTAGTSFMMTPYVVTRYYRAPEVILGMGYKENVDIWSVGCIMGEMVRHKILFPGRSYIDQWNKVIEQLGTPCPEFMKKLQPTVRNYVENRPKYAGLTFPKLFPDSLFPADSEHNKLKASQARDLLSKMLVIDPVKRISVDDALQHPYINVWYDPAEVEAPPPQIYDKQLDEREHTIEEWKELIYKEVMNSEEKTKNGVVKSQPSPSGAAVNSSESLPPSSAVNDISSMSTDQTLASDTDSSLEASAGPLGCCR
c-Jun N-terminal kinase (Mus musculus), sequence (Q91Y86 whole entry, looked up): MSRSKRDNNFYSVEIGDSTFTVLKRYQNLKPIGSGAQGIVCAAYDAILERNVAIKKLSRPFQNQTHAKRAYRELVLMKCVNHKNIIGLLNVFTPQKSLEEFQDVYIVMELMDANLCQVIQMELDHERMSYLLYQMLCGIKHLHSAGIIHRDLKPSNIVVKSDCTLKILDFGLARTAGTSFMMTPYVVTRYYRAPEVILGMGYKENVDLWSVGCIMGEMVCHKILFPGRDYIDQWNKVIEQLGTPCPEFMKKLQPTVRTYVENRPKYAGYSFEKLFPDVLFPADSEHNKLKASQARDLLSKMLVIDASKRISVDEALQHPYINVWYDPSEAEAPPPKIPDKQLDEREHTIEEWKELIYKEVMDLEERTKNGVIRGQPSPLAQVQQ
c-Jun N-terminal kinase (Mus musculus), sequence (Q9WTU6 whole entry, looked up): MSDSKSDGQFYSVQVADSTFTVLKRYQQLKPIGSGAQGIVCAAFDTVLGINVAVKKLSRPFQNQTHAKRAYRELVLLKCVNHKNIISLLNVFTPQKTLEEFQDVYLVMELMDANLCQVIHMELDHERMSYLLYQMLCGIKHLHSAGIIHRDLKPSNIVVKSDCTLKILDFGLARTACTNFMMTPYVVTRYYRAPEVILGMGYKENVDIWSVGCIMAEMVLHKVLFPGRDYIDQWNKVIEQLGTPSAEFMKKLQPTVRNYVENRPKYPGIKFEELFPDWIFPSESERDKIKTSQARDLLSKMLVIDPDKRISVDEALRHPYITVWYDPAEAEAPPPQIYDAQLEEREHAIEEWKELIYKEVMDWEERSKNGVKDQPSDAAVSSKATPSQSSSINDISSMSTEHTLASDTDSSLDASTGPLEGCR

BV-2 [10] = test: Anti-neuroinflammatory activity against LPS stimulated mouse BV-2 cells assessed as reduction in COX-2 protein expression at 1 to 10 uM measured after 24 hrs in presence of LPS by western blot analysis; type: functional, cell-based; conditions: dose 1-10 µM
BV-2 [11] = test: Anti-neuroinflammatory activity in mouse BV-2 cells assessed as reduction in LPS-stimulated IL-6 production at 1 to 10 uM preincubated for 1 hr followed by LPS treatment and measured after 24 hrs by ELISA; type: functional, cell-based; conditions: dose 1-10 µM, time 25.0 hrs
BV-2 [12] = test: Anti-neuroinflammatory activity in mouse BV-2 cells assessed as reduction in LPS-stimulated TNFalpha production at 1 to 10 uM preincubated for 1 hr followed by LPS treatment and measured after 24 hrs by ELISA; type: functional, cell-based; conditions: dose 1-10 µM, time 25.0 hrs
[13] = molecular target: Transcription factor p65 (Mus musculus) (UniProt Q04207); test: Inhibition of NF-kappaB p65 nuclear translocation in LPS-stimulated mouse BV-2 cells at 10 uM incubated with compound prior to LPS stimulation by DAPI staining based immunofluorescence assay; type: cell-based
Transcription factor p65 (Mus musculus), sequence (Q04207 whole entry): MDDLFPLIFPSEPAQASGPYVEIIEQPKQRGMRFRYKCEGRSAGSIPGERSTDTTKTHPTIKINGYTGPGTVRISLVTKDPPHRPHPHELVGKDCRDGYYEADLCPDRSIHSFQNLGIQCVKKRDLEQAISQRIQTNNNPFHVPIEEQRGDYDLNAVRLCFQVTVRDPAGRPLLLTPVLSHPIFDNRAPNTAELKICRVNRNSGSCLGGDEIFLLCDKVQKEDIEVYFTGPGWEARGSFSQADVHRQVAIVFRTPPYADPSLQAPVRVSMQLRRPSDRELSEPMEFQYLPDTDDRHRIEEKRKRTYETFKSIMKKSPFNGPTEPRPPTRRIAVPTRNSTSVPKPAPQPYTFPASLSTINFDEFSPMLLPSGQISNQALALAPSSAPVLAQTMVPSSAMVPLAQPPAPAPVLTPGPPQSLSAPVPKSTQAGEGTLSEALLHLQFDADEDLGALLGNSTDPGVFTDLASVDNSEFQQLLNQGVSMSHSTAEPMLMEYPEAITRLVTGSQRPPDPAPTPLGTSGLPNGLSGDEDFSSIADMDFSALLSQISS

BV-2 [14] = test: Inhibition of TLR4 production in LPS stimulated mouse BV-2 cells at 1 to 10 uM preincubated with LPS for 1 hr followed by incubation with compound for 16 hrs by western blot analysis; type: functional, cell-based; conditions: dose 1-10 µM
BV-2 [15] = test: Anti-neuroinflammatory activity in mouse BV-2 cells assessed as reduction in LPS-stimulated IL-6 mRNA expression by qRT-PCR analysis; type: functional, cell-based; conditions: dose 1-10 µM
[16] = molecular target: MAP kinase p38 (Mus musculus) (UniProt P47811+O08911+Q9WUI1+Q9Z1B7); test: Inhibition of p38 phosphorylation in LPS stimulated mouse BV-2 cells at 1 to 10 uM preincubated with LPS for 1 hr followed by incubation with compound for 16 hrs by western blot analysis; type: cell-based; conditions: dose 1-10 µM
BV-2 [17] = test: Anti-neuroinflammatory activity in mouse BV-2 cells assessed as reduction in LPS-stimulated IL-1 beta production at 1 to 10 uM preincubated for 1 hr followed by LPS treatment and measured after 24 hrs by ELISA; type: functional, cell-based; conditions: dose 1-10 µM, time 25.0 hrs

Row | Compound | CC50 at 24 h [1] | IC50 (BV-2 [2]) | also measured
1 | CC(C)c1cc2c(c(CO)c(=O)c1)[C@@H](O)C[C@@H]2C | 49 µM | 20 µM | –
2 | Cc1c2c(cc(C(C)C)cc1=O)[C@@](C)(O)CC2 | 79 µM | > 30 µM | –
3 | CC(C)c1cc2c(c(CO)c(=O)c1)CC[C@@]2(C)O | 61 µM | > 30 µM | –
4 | Cc1c2c(cc(C(C)(C)O)cc1=O)[C@@H](C)C[C@@H]2O | 39 µM | > 30 µM | –
5 | CNC(=N)NCCC[C@H](N)C(=O)O [TILARGININE] | > 200 µM | 10 µM | –
6 | CC(C)c1cc2c(c(CO)c(=O)c1)[C@H](O)C[C@@H]2C | 74 µM | 9 µM | Activity (BV-2 [3]): Active; Activity (BV-2 [4]): Active; Activity (BV-2 [5]): Dose-Dependent Effect; inhibition (BV-2 [6]): inactive; Activity (BV-2 [7]): Active; Activity (BV-2 [8]): Active; inhibition [9]: inactive; Activity (BV-2 [10]): Active; Activity (BV-2 [11]): Active; Activity (BV-2 [12]): Active; inhibition [13]: Active; inhibition (BV-2 [14]): inactive; Activity (BV-2 [15]): Active; inhibition [16]: inactive; Activity (BV-2 [17]): Active
7 | Cc1c2c(cc(C(C)C)cc1=O)[C@@H](C)CC2 | 76 µM | > 30 µM | –
8 | Cc1c2c(cc(C(C)C)cc1=O)[C@@H](C)C[C@@H]2O | 35 µM | > 30 µM | –
9 | Cc1c2c(cc(C(C)C)cc1=O)[C@@H](C)C[C@H]2O | 78 µM | 26 µM | –
10 | Cc1c2c(cc(C(C)C)cc1=O)[C@](C)(O)C[C@@H]2O | 49 µM | > 30 µM | –
